Patent publication US11413278B2, “Compounds and methods for promoting stress resistance” (priority 2015, dated 2022)
pEC50: −log10 of the molar value. Where two headings read alike, the source gives them in different places.

Tests used:
[1] = system: human dermal fibroblast (HDF) primary cells; experiment: H2O2-resistance in primary human dermal fibroblasts; format: cell-based; details: YES/NO
WI-38 cells [2] = experiment: MMS resistance assay; format: cell-based, human; details: YES/NO; for Assay 3: MMS-resistant: * indicates partial; for Assay 5: Triple resistant: H2O2, cadmium and MMS
Experimental: (§1) For many stress conditions tested previously, one significant correlation to longevity is the cellular resistance to H2O2 or CdCl2. Applicants then tested these small molecules, at five different final concentrations (0.25 μM to 20 μM), for cadmium and MMS resistance in WI-38 cells.
(§2) The setups on 384-well plates and incubation times were the same as for H2O2 until the time of incubation with the stressors, which was 12 hours for both cadmium and MMS assays. Applicants tested several conditions, including conditions used to assay fibroblasts from long-lived animals (Salmon et al., 2005). These conditions produced better results with the positive controls (KEAP1 and AKT1 siRNAs) in the MMS assay. Thus, for MMS, the cells were shifted from growth media—OptiMEM+10% FBS, to DMEM (Gibco)+2% BSA (no serum) just before adding small molecules, which occurred 24 hours before MMS addition.
(§3) Isolated small molecules were tested for MMS and cadmium resistance twice in two independent assays. Each small molecule was analyzed at five different concentrations (0.25 μM to 20 μM final concentration), with technical triplicates for each dose. Data were analyzed using a global variance t-test.

NRF2 [3] = experiment: in vitro; format: cell-based, human; details: 10 uM; YES/NO
Experimental: (§4) For qPCR analysis, WI-38 cells were treated with small molecules (at 10 μM) (biological quadruplicates) for 24 hrs and processed for RNA isolation and reverse transcription (RT) with the Cells-to-Ct Kit (Life Technologies), following manufacturer's instructions. RT products were diluted with H2O and used for qPCR analysis on an ABI 7300 system (Life Technologies) (technical triplicates). Relative expression levels of target genes were normalized to the genes B2M, PPIA and GAPDH. To knock down the expression of FOXO3 or NRF2, WI-38 cells were transfected, using the RNAiMAX reagents (Life Technologies), with siRNA oligos (at 10 nM final concentration, 10 ml culture medium) for FOXO3 (Life Technologies) or NRF2 (Integrated DNA Technologies) on 10-cm petri dishes for 36 hrs, and then detached and aliquoted onto 96-well (for qPCR analysis) or 384-well plates (for H2O2-stress treatment). ˜24 hrs later, small molecules were introduced and incubated with cells for 24 hrs. Cells were then either processed with the Cells-to-Ct Kit to prepare RT products for qPCR analysis or subjected to H2O2 (700 μM) for 3 hrs and assayed for viability. The knockdown efficiency of FOXO3 or NRF2 was checked at 36 hrs post-transfection and at the end as well.
(§5) For qPCR analysis, WI-38 cells were treated with small molecules (at 10 μM) (biological quadruplicate) for 24 hrs and processed for RNA isolation and reverse transcription (RT) with the Cells-to-Ct Kit (Life Technologies), following manufacturer's instructions. RT products were diluted with H2O and used for qPCR analysis on a LightCycler 480 system (Roche) (technical triplicates). Relative expression levels of target genes were normalized to the genes B2M, PPIA and GAPDH. To knock down the expression of FOXO3 or NRF2, WI-38 cells were transfected with siRNA oligos (at 10 nM final concentration) for FOXO3 (Life Technologies) or NRF2 on 10-cm petri dish for 36 hrs, and then detached and aliquoted onto 96-well plates. ˜24 hrs later, small molecules were introduced and incubated with cells for 24 hrs. Cells were then processed with the Cells-to-Ct Kit to prepare RT products for qPCR analysis. The knockdown efficiency of FOXO3 or NRF2 was checked at 36 hrs post-transfection and at the end as well.
Of these, O15 and O20 consistently (in 3 of 3 experiments) required NRF2 to promote H2O2-resistance, and their resistance capacities were reduced by ˜90% on average upon NRF2 knockdown under conditions tested.

WI-38 cells [4] = experiment: CdCl2 (cadmium) resistance assay; format: cell-based, human; details: YES/NO; for Assay 2: Cadmium-resistant: * indicates partial
Experimental: as §1, §2, §3

WI-38 cells [5] = details: for Assay 1: H2O2-resistant: YES/NO, if NO, possibly due to repeated freezing/thawing of stocks; for pEC50: read-out: Est. ED50
FOXO3 = experiment: qPCR analysis of FOXO3-regulated genes; format: cell-based, human; details: Homo sapiens, 24 h, Assay 10(m), at 10 uM, qPCR
Experimental: as §4, §5
Many perturbations that increase lifespan and stress resistance in animals do so in a FOXO-dependent fashion (Kenyon, 2010c). Humans have several FOXO genes, but FOXO3, which promotes stress resistance in mammalian cell culture (Kops et al., 2002; Nemoto and Finkel, 2002; Tran et al., 2003), is the one that has been linked to exceptional longevity in humans (Anselmi et al., 2009; Flachsbart et al., 2009; Li et al., 2009; Pawlikowska et al., 2009; Soerensen et al., 2010; Willcox et al., 2008). FOXO1, in contrast, appears to be responsible for some symptoms of diabetes in mouse models (Cheng and White, 2011). For this reason, applicants have focused on analyzing potential ability of our small molecules to activate FOXO3. […] Another 4 molecules (Gr-7A, Gr-7C, O12 and O23) could induce robust expression (greater than 1.5-fold) of at least 2 FOXO3 target genes.

WI-38 cells [6] = details: Assay 8(k); without H2O2, at 10 uM
Experimental: WI-38 cells were seeded on 384-well plates for 24 hrs and then incubated with small molecules for 24 hrs. […] Images were collected on an INCell Analyzer 2000 (GE) and analyzed with the Developer software.

NRF2 [7] = experiment: qPCR analysis of NRF2-regulated genes; format: cell-based, human; details: Homo sapiens, 24 h, Assay 12(o), at 10 uM, qPCR
Experimental: as §4, §5
NRF2/SKN-1, the oxidative stress and xenobiotic phase 2 detoxification protein, can extend animal lifespan (Sykiotis and Bohmann, 2008; Tullet et al., 2008). Applicants analyzed these small molecules for their ability to increase the expression of NRF2-regulated genes, including HMOX1 (heme oxygenase (decycling) 1; anti-oxidant), NQO1 (NAD(P)H dehydrogenase, quinone 1; phase 2 detoxification enzyme), GCLC (glutamate-cysteine ligase, catalytic) and GSTM1 (glutathionine S transferase) (Hur and Gray, 2011; Suzuki et al., 2013).

C. elegans = C. elegans lifespan assays (liquid and plate); format: in vivo, Caenorhabditis elegans; details: Caenorhabditis elegans, at 66 uM
mTOR = mTOR inhibition (RPS6 phosphorylation status), In-Cell Western; format: cell-based, human
Experimental: In-Cell Western assays were performed, following a standard immuno-staining protocol. Briefly, WI-38 cells were treated with small molecules for 24 hrs, and then processed and incubated with primary antibody cocktail (Cell Signaling, mouse anti-RPS, 1:25; rabbit-anti-pRPS6-(Ser-235/236), 1:100) overnight at 4° C. Next day, samples were processed and incubated with fluorophore-conjugated secondary antibodies (Cell Signaling, DyLight 680-goat anti-mouse, 1:500; DyLight 800-goat anti-rabbit, 1:1,000). Images were collected on an Odyssey Imager (LI-COR) and analyzed with the Image Studio Lite software (version 5.0.21).
Mammalian target of rapamycin (mTOR) is a crucial regulator of cell growth and metabolism and has been implicated in aging and many diseases, including cancer, diabetes and neurological diseases (Dazert and Hall, 2011; Zoncu et al., 2011). […] In addition, the anti-diabetes drug metformin (Kalender et al., 2010), as well as other AMPK activators such as 2-deoxy-D-glucose (Inoki et al., 2003) and AICAR (Shaw et al., 2004), could inhibit mTORC1. Applicants examined the effects of our molecules (at three doses, 5 μM, 10 μM and 20 μM) on the phosphorylation status of ribosomal protein S6 (RPS6), a readout of mTOR activity, to ask whether they could inhibit mTOR.
In-Cell Western assays were performed, following the same procedures to analyze DNA-damage markers. WI-38 cells were incubated with small molecules for 24 hrs, and then processed and incubated with primary antibody cocktail (mouse anti-RPS, 1:25; rabbit-anti-pRPS6, 1:100) overnight at 4° C. Next day, samples were processed and incubated with fluorophore-conjugated secondary antibodies (goat anti-mouse, 1:500; goat anti-rabbit, 1:1,000) in antibody dilution buffer. Images were collected on an Odyssey Imager (LI-COR) and analyzed with the Image Studio Lite software.

[8] = read-out: Induction of FOXO3-regulated genes: SOD2 normalized fold-change
[9] = read-out: Induction of NRF2-regulated genes: HMOX1 normalized fold-change
[10] = Assay 2(z), 1.0 × 10^9 bacteria/ml, wild type + FuDR (2012 July), read-out: Lifespan assay in liquid
[11] = Assay 3(aa), 2.5 × 10^9 bacteria/ml, wild type + FuDR, read-out: Lifespan assay in liquid
[12] = Assay 4(ab), 2.0 × 10^10 bacteria/ml, CF512 worms, no FuDR, read-out: Lifespan assay on plates
[13] = dose response 0.6-20 μM, H2O2-resistance
[14] = read-out: Induction of NRF2-regulated genes: NQO1 normalized fold-change

SMILES | Assay 6: H2O2-resistant, at 10 uM, human dermal fibroblast (HDF) primary cells [1] | Assay 3: MMS-resistant (WI-38 cells [2]) | Assay 5: Triple resistant (WI-38 cells [2]) | Assay 4: H2O2- & Cd-resistant (WI-38 cells [4]) | Assay 2: Cadmium-resistant (WI-38 cells [4]) | Assay 1: H2O2-resistant (WI-38 cells [5]) | fold induction at 10 µM (FOXO3; [8]) | PI cell-death imaging without H2O2 (indicating potential toxicity) (WI-38 cells [6]) | fold induction at 10 µM (NRF2 [7]; [9]) | ILS at 66 µM (C. elegans; [10]) [%] | ILS at 66 µM (C. elegans; [11]) [%] | ILS at 66 µM (C. elegans; [12]) [%] | pEC50 (WI-38 cells [5]; [13]) | fold induction at 10 µM (NRF2 [7]; [14]) | other results
Oc1nc2ccccc2n2cccc12 [O4] | YES | YES | YES | YES | YES | YES | – | – | – | – | – | – | – | – | Assay 17: NRF2-dependency for H2O2-resistance (NRF2 [3]): YES; pEC50 (WI-38 cells [5]): 4.95
CO/C(O)=C1\C(C)=NC2=C(C(=O)CC(c3cccs3)C2)C1c1ccc(F)c(F)c1 (stereo not drawn) [O5] | YES | YES | YES | YES | YES | YES | 0.77 | YES | 2.15 | 48.9 | 18.9 | 46.2 | 4.70 | – | fold induction at 10 µM (FOXO3; read-out: Induction of FOXO3-regulated genes: GADD45A normalized fold-change): 0.45; ILS at 66 µM (C. elegans; Assay 5(ac), 1.0 × 10^11 bacteria/ml, CF512 worms, no FuDR, read-out: Lifespan assay on plates): 46.3%; ILS at 66 µM (C. elegans; Assay 6(ad), 2.0 × 10^10 bacteria/ml, CF512 worms, no FuDR, read-out: Lifespan assay on plates): 10.2%; ILS at 66 µM (C. elegans; Assay 7(ae), 1.0 × 10^11 bacteria/ml, CF512 worms, no FuDR, read-out: Lifespan assay on plates): 32%
CO[C@H]1C[C@@H]2CC[C@@H](C)[C@@](O)(O2)C(=O)C(=O)N2CCCC[C@H]2C(=O)O[C@H]([C@H](C)C[C@@H]2CC[C@@H](O)[C@H](OC)C2)CC(=O)[C@H](C)/C=C(\C)[C@@H](O)[C@@H](OC)C(=O)[C@H](C)C[C@H](C)/C=C/C=C/C=C/1C [rapamycin, reference compound] | – | – | – | – | – | – | – | – | – | – | – | – | – | – | Reduction of ratio of pRPS6/RPS6 by rapamycin (mTOR): ≥ 90%; Reduction of phosphorylated form of RPS6 by rapamycin (normalized) (mTOR; control): 95%
Cc1ccc(S(=O)(=O)/C(C#N)=C/c2c(Oc3ccc(Cl)c(C)c3)nc3ccccn3c2=O)cc1 [Gr-5C] | YES | – | – | – | – | – | – | YES | 1.67 | 32.6 | 1.6 | -6.9 | 4.80 | 1.49 | –
Oc1nc(-c2ccccn2)nc2c1Cc1cc(F)ccc1O2 [O24] | YES | YES | YES | YES | YES | YES | 1.2 | – | 9.55 | 13 | 2.3 | – | 5.12 | 1.48 | fold induction at 10 µM (FOXO3; read-out: Induction of FOXO3-regulated genes: SESN1 normalized fold-change): 1.93; fold induction at 10 µM (FOXO3; read-out: Induction of FOXO3-regulated genes: TXNIP normalized fold-change): 0.61; fold induction at 10 µM (NRF2 [7]; read-out: Induction of NRF2-regulated genes: GCLC normalized fold-change): 0.7; fold induction at 10 µM (NRF2 [7]; read-out: Induction of NRF2-regulated genes: GSTM1 normalized fold-change): 1.24
